Measurements reported in patent US7956190B2, “Benzimidazole amido derivatives as kinase inhibitors” (Hoffmann-La Roche Inc., priority 2007, dated 2011).

Test system: HCT 116 cells
Assay: CellTiter-Glo Assay in HCT 116 Cells
Type: cell-based
Conditions: HCT 116 human colon carcinoma cells, 5 days (120 h) incubation, CellTiter-Glo luminescence, tested in triplicate
Description: CellTiter-Glo™ Assay in HCT 116 Cells
The CellTiter-Glo™ Luminescent Cell Viability Assay (Promega) is a homogeneous method of determining the number of viable cells in culture based on quantitation of the ATP present, which signals the presence of metabolically active cells.
HCT 116 cells (human colon carcinoma, ATCC-No. CCl-247) were cultivated in RPMI 1640 medium with GlutaMAX™ I (Invitrogen, Cat-No. 61870-010), 5% Fetal Calf Serum (FCS, Sigma Cat-No. F4135 (FBS)); 100 Units/ml penicillin/100 μg/ml streptomycin (=Pen/Strep from Invitrogen Cat. No. 15140). For the assay the cells were seeded in 384 well plates, 1000 cells per well, in the same medium. The next day the test compounds were added in various concentrations ranging from 30 μM to 0.0015 μM (10 concentrations, 1:3 diluted). After 5 days the CellTiter-Glo™ assay was done according to the instructions of the manufacturer (CellTiter-Glo™ Luminescent Cell Viability Assay, from Promega). In brief: the cell-plate was equilibrated to room temperature for approximately 30 minutes and than the CellTiter-Glo™ reagent was added. The contents were carefully mixed for 15 minutes to induce cell lysis. After 45 minutes the luminescent signal was measured in Victor 2, (scanning multiwell spectrophotometer, Wallac).
• Medium: RPMI 1640 with GlutaMAX™ I (Invitrogen, Cat-Nr. 61870), 5% FCS (Sigma Cat.-No. F4135), Pen/Strep (Invitrogen, Cat No. 15140). • HCT116 (ATCC-No. CCl-247): 1000 cells in 60 μl per well of 384 well plate (Greiner 781098, μClear-plate white) • After seeding incubate plates 24 h at 37° C., 5% CO2 2nd. Day: Induction (Treatment with Compounds, 10 Concentrations):
In order to achieve a final concentration of 30 μM as highest concentration 3.5 μl of 10 mM compound stock solution were added directly to 163 μl media. Then step e) of the dilution procedure described below, was followed.

Row | IC50 [µM] | Compound
1 | 1 to 15 | O=C(Nc1ccc(OC(F)(F)F)cc1)Nc1cccc2nc(-c3c(NC[C@@H](O)c4ccccc4)cc[nH]c3=O)[nH]c12 [Example D-4, 1-{2-[4-((S)-2-Hydroxy-2-phenyl-ethylamino)-2-oxo-1,2-dihydro-pyridin-3-yl]-3H-benzoimidazol-4-yl}-3-(4-trifluoromethoxy-phenyl)-urea]
2 | 1 to 15 | O=C(Nc1ccccc1)Nc1cccc2nc(-c3c(NC[C@@H](O)c4ccccc4)cc[nH]c3=O)[nH]c12 [Example D-5, 1-{2-[4-((S)-2-Hydroxy-2-phenyl-ethylamino)-2-oxo-1,2-dihydro-pyridin-3-yl]-3H-benzoimidazol-4-yl}-3-phenyl-urea]
3 | 1 to 15 | COc1cccc(NC(=O)Nc2cccc3nc(-c4c(NC[C@@H](O)c5ccccc5)cc[nH]c4=O)[nH]c23)c1 [Example D-6, 1-{2-[4-((S)-2-Hydroxy-2-phenyl-ethylamino)-2-oxo-1,2-dihydro-pyridin-3-yl]-3H-benzoimidazol-4-yl}-3-(3-methoxy-phenyl)-urea]
4 | 1 to 15 | O=C(NCc1ccccc1)Nc1cccc2nc(-c3c(NC[C@@H](O)c4ccccc4)cc[nH]c3=O)[nH]c12 [Example D-7, 1-Benzyl-3-{2-[4-((S)-2-hydroxy-2-phenyl-ethylamino)-2-oxo-1,2-dihydro-pyridin-3-yl]-3H-benzoimidazol-4-yl}-urea]
5 | 1 to 15 | O=C(Nc1ccccc1Cl)Nc1cccc2[nH]c(-c3c(NC[C@@H](O)c4cccc(Cl)c4)cc[nH]c3=O)nc12 [Example D-8, 1-(2-Chloro-phenyl)-3-(2-{4-[(S)-2-(3-chloro-phenyl)-2-hydroxy-ethylamino]-2-oxo-1,2-dihydro-pyridin-3-yl}-1H-benzoimidazol-4-yl)-urea]

The remaining lines, values behind:

Row | Compound | IC50 [µM]
6 | O=C(Nc1cccc2nc(-c3c(NC[C@@H](O)c4ccccc4)cc[nH]c3=O)[nH]c12)c1ccco1 [Example B-19, Furan-2-carboxylic acid {2-[4-((S)-2-hydroxy-2-phenyl-ethylamino)-2-oxo-1,2-dihydro-pyridin-3-yl]-3H-benzoimidazol-4-yl}-amide] | 1 to 15
7 | COc1ccc(OC(=O)Nc2cccc3nc(-c4c(NC[C@@H](O)c5ccccc5)cc[nH]c4=O)[nH]c23)cc1 [Example C-1, {2-[4-((S)-2-Hydroxy-2-phenyl-ethylamino)-2-oxo-1,2-dihydro-pyridin-3-yl]-3H-benzoimidazol-4-yl}-carbamic acid 4-methoxy-phenyl ester] | 1 to 15
8 | COCCOC(=O)Nc1cccc2nc(-c3c(NC[C@@H](O)c4ccccc4)cc[nH]c3=O)[nH]c12 [Example C-2, {2-[4-((S)-2-Hydroxy-2-phenyl-ethylamino)-2-oxo-1,2-dihydro-pyridin-3-yl]-3H-benzoimidazol-4-yl}-carbamic acid 2-methoxy-ethyl ester] | 1 to 15
9 | CC(C)(OC(=O)Nc1cccc2nc(-c3c(NC[C@@H](O)c4ccccc4)cc[nH]c3=O)[nH]c12)C(Cl)(Cl)Cl [Example C-3, {2-[4-((S)-2-Hydroxy-2-phenyl-ethylamino)-2-oxo-1,2-dihydro-pyridin-3-yl]-3H-benzoimidazol-4-yl}-carbamic acid 2,2,2-trichloro-1,1-dimethyl-ethyl ester] | 1 to 15
10 | C=CCOC(=O)Nc1cccc2nc(-c3c(NC[C@@H](O)c4ccccc4)cc[nH]c3=O)[nH]c12 [Example C-5, {2-[4-((S)-2-Hydroxy-2-phenyl-ethylamino)-2-oxo-1,2-dihydro-pyridin-3-yl]-3H-benzoimidazol-4-yl}-carbamic acid allyl ester] | 2.78
11 | CC(C)OC(=O)Nc1cccc2nc(-c3c(NC[C@@H](O)c4ccccc4)cc[nH]c3=O)[nH]c12 [Example C-6, {2-[4-((S)-2-Hydroxy-2-phenyl-ethylamino)-2-oxo-1,2-dihydro-pyridin-3-yl]-3H-benzoimidazol-4-yl}-carbamic acid isopropyl ester] | 1 to 15
12 | COC(=O)Nc1cccc2[nH]c(-c3c(NC[C@@H](O)c4cccc(Cl)c4)cc[nH]c3=O)nc12 [Example C-7, (2-{4-[(S)-2-(3-Chloro-phenyl)-2-hydroxy-ethylamino]-2-oxo-1,2-dihydro-pyridin-3-yl}-1H-benzoimidazol-4-yl)-carbamic acid methylester] | 1 to 15
13 | O=C(Nc1cccc(F)c1)Nc1cccc2nc(-c3c(NC[C@@H](O)c4ccccc4)cc[nH]c3=O)[nH]c12 [Example D-1, 1-(3-Fluoro-phenyl)-3-{2-[4-((S)-2-hydroxy-2-phenyl-ethylamino)-2-oxo-1,2-dihydro-pyridin-3-yl]-3H-benzoimidazol-4-yl}-urea] | 1 to 15
14 | COc1ccc(NC(=O)Nc2cccc3nc(-c4c(NC[C@@H](O)c5ccccc5)cc[nH]c4=O)[nH]c23)cc1 [Example D-2, 1-{2-[4-((S)-2-Hydroxy-2-phenyl-ethylamino)-2-oxo-1,2-dihydro-pyridin-3-yl]-3H-benzoimidazol-4-yl}-3-(4-methoxy-phenyl)-urea] | 1 to 15
15 | O=C(Nc1ccc(F)cc1)Nc1cccc2nc(-c3c(NC[C@@H](O)c4ccccc4)cc[nH]c3=O)[nH]c12 [Example D-3, 1-(4-Fluoro-phenyl)-3-{2-[4-((S)-2-hydroxy-2-phenyl-ethylamino)-2-oxo-1,2-dihydro-pyridin-3-yl]-3H-benzoimidazol-4-yl}-urea] | 3.61
